Measurements published in patent US5314911A, “Immunosuppressive agent” (Shionogi Seiyaku Kabushiki Kaisha, priority 1992, dated 1994).
Values after ≈ are worked out from the molar mass of the structure shown.

Legend:
[1] = system: Con A reaction of mouse splenic cell; assay: Effect on mitogenic responses (Con A reaction of mouse splenic mononuclear cells, [3H]-TdR incorporation); format: cell-based, C3H/HeN mice
Experimental: Splenic mononuclear cells (5×10^5) from C3H/HeN mice were suspended in 0.2 ml of RPMI 1640 medium containing 10% fetal bovine serum and 5×10^-5 M 2-mercaptoethanol (RPMI/FCS) and plated 96-well microtiter plates. The cells were cultured with 5 μg/ml of Concanavalin A (Con A; Type IV, Sigma Chemical Co.) for 72 hr at 37° C. in a humidified atmosphere of 5% carbon dioxide and 95% of air. PA-48153C was dissolved in dimethyl sulfoxide (DMSO) and added to the mitogenic response. The final concentration was not more than 100 ng/ml. Eighteen hours before harvesting, 0.5 μCi of tritiated thymidine ([^3 H]-TdR) was added to each well. The cells were harvested onto glass filter paper using a semi-automated multiple cell harvester, and [^3 H]-TdR incorporation was determined by liquid scintillation counter.

[2] = system: allo-MLR (C3H/HeN mouse splenic mononuclear cells with C57BL/6 mouse splenic mononuclear cells); assay: Allogenic mixed lymphocyte reaction (allo-MLR) in vitro, [3H]-TdR incorporation; format: cell-based; settings: 144 h, 6 days, read-out: IC50 value inhibiting allo MLR
Experimental: Induction and assay of allo-MLR were performed in 96 well microtiter plates. C3H/HeN (H-2^k) mouse splenic mononuclear cells (5×10^5 cells in 0.1 ml of RPMI/FCS) were mixed with an equal volume of mitomycin C-treated (50 μg/ml, 37° C., 30 min, washed 3 times with RPMI 1640) C57BL/6 (H-2^b) mouse splenic mononuclear cells (5×10^5 cells) and incubated with RPMI/FCS in 96 well microtiter plate for 6 days under the same condition as described in 1). PA-48153C was added to the allo-MLR in such a manner that its final concentration was not more than 100 ng/ml. Eighteen hours before harvesting, 0.5 μCi of [^3 H]-TdR was pulsed to each well. The cells were harvested and assayed for allo-MLR by their ability to uptake [^3 H]-TdR incorporation.

CCD-19Lu = assay: Inhibition of cell growth (MTT); format: cell-based; settings: Human normal lung, MEM, 2 × 10^4 cells/well, 3-4 days, read-out: IC50 (concentration inhibiting 50% cell growth)
Experimental: (§1) Each cell defined in Table 3 was put in each well of a 96-well microtiter plate in one 0.1 ml-scale containing the defined number of cells and preincubated for one day under the same condition as in 1). PA-48153C (0.1 ml) was added to each well in such a manner that its final concentration was in a range from 0 to 5,000 ng/ml. After 3-4 days incubation, 25 μl of 6 mg/ml MTT [3-(4,5-dimethylthiazol-2-yl)-2,5-diphenyltetrazolium bromide] (Sigma) was added to each well. After further incubation at 37° C. for 4 hr under the same condition, formazan generated therein was dissolved by adding 50 μl of 20% […] (SDS) in 0.02N HCl and allowing to stand at 37° C. for 24 hr. An amount of formazan generated in proportion to the number of live cells was determined according to optical density analyzed by an immunoreader (Sanko Junyaku k.k.) equipped with a 570 nm-filter (reference to J. Immunol. Methods 65, 55-63 (1983)). IC50 (concentration inhibiting 50% cell growth) was calculated from the correlativity of PA-48153C concentration with optical density.

P388 = assay: Inhibition of cell growth (MTT); format: cell-based; settings: Mouse leukemia, RPMI 1640, 5 × 10^2 cells/well, 3-4 days, read-out: IC50 (concentration inhibiting 50% cell growth)
Experimental: as §1

LU-99 = assay: Inhibition of cell growth (MTT); format: cell-based, Human
Experimental: as §1

P388/ADM = assay: Inhibition of cell growth (MTT); format: cell-based, Mouse
Experimental: as §1

tumor cells = assay: Inhibition of cell growth (MTT), summary over tumor cells; format: cell-based
Experimental: as §1

[3] = system: Aspergillus fumigatus IFO 8866; assay: Antifungal activity, liquid doubling dilution method; format: cell-based; settings: IFO8866, Sabouraud broth, 24 hr, 37° C., read-out: minimum inhibitory concentration (MIC)
Experimental: (§2) Antifungal activity of PA-48153C was determined according to the liquid doubling dilution method using Sabouraud or YNB broth.

Candida albicans KE-2 = assay: as above; format: cell-based; settings: KE2, YNB broth, 48 hr, 37° C., read-out: minimum inhibitory concentration (MIC)
Experimental: as §2

Solubility = format: physicochemical

C/C=C/C[C@H](C)[C@@H](OC)[C@@H](C)[C@H](O)C[C@H]1OC(=O)C=C[C@H]1CC (relative stereo) [PA-48153C, (5R*,6R*)-5-ethyl-5,6-dihydro-6-[(E)-(2R*,3S*,4R*,5S*)-2-hydroxy-4-methoxy-3,5-dimethyl-7-nonenyl]-2H-pyran-2-one]
IC50 ([1]; Mus musculus, Con A 5 μg/ml, 72 hr): 4.8 ng/mL (≈ 0.0148 µM) | inhibition at 0.0017 µg/mL ([1]; Mus musculus, PA-48153C 1.7 ng/ml, Con A 5 μg/ml, 72 hr): 83.8% | inhibition at 0.0056 µg/mL ([1]; Mus musculus, PA-48153C 5.6 ng/ml, Con A 5 μg/ml, 72 hr): 61.6% | inhibition at 0.05 µg/mL ([1]; Mus musculus, PA-48153C 50.0 ng/ml, Con A 5 μg/ml, 72 hr): 94% | Radioactivity cpm ± SD ([1]; PA-48153C 1.7 ng/ml, Con A 5 μg/ml, 72 hr): 10,200 ± 451 cpm | Radioactivity cpm ± SD ([1]; PA-48153C 5.6 ng/ml, Con A 5 μg/ml, 72 hr): 24,200 ± 883 cpm | Radioactivity cpm ± SD ([1]; PA-48153C 50.0 ng/ml, Con A 5 μg/ml, 72 hr): 3,780 ± 141 cpm | inhibition of proliferative response to Con A (in words) ([1]; splenic mononuclear cell from normal mice): inhibited the proliferative response of splenic mononuclear cell from normal mice to Con A in a dose-dependent fashion | IC50 [2]: 3.1 ng/mL (≈ 0.00955 µM) | IC50 (CCD-19Lu): > 5 µg/mL | IC50 (P388): 1.8 ng/mL (≈ 0.00555 µM) | IC50 (LU-99; Lu-99, Human giant-cell carcinoma of lung, RPMI 1640, 2 × 10^3 cells/well, 3-4 days, read-out: IC50 (concentration inhibiting 50% cell growth)): 2.2 ng/mL (≈ 0.00678 µM) | IC50 to normal lung cell CCD-19Lu relative to that to giant-cell carcinoma of lung Lu-99 (LU-99; ratio CCD-19Lu / Lu-99): at least 2,500 times | growth inhibition of multi-resistant carcinoma P388/ADM (in words) (P388/ADM): strongly inhibits the growth of multi-resistant carcinoma P388/ADM | IC50 (P388/ADM; P388/ADM, Mouse leukemia (multi-resistant carcinoma), RPMI 1640, 5 × 10^2 cells/well, 3-4 days, read-out: IC50 (concentration inhibiting 50% cell growth)): 4.8 ng/mL (≈ 0.0148 µM) | growth inhibition of tumor cells (in words) (tumor cells): strongly inhibits the growth of tumor cells | MIC [3]: 12.5 µg/mL (≈ 38.5 µM) | MIC (Candida albicans KE-2): 50 µg/mL (≈ 154 µM) | Solubility in organic solvents (Solubility; n-hexane, ethyl acetate, chloroform, methanol): soluble in n-hexane, ethyl acetate, chloroform, methanol | Solubility in water (Solubility; water): insoluble in water
